The source of these data is US7417054B2, “Naphthyridine compounds” (Janssen Pharmaceutica N.V., priority 2005, dated 2008).

Test [1] concerns the target T1, human H3 receptor (Homo sapiens, UniProt Q9Y5N1).
T1 construct: expressed in transfected cells; host or cells: SK-N-MC cells
The test is described as follows: H3 receptor binding, N-[3H]-α-methylhistamine displacement on SK-N-MC cell membranes. To be noted: cloned human H3 receptor in SK-N-MC cell membranes; 0.8 nM N-[3H]-α-methylhistamine; 60 min at 25° C.

In test [2] the target is Rat SERT (Rattus norvegicus, UniProt P31652). Nature of the test: Rat brain SERT binding, [3H]-Citalopram displacement on rat brain membranes. As to conditions: for Ki: Rat SERT Ki (nM).
Test [3] deals with T2, human SERT (Homo sapiens, UniProt P31645).
T2 construct: expressed in transfected cells; host or cells: HEK293
The test is described as follows: Human SERT binding, 3H-citalopram displacement on HEK293 membranes. As to conditions: HEK293 membranes expressing the human SERT, rt for 1 h. The method, then:
Homogenized HEK293 (Human Embryonic Kidney) membranes expressing the human SERT were incubated with ^3H-citalopram (SERT) at rt for 1 h in 50 mM Tris, 120 mM NaCl, 5 mM KCl (pH 7.4). […] The membranes were washed and the radioactivity was counted as above.

[4] abbreviates: rat brain membranes without cerebellum, 0.6 nM [3H]-Citalopram, 60 min at 25° C.
Where [5] appears, read: read-out: Rat SERT Ki, rat brain membranes without cerebellum, 0.6 nM [3H]-Citalopram, 60 min at 25° C.

pKi: −log10 of the molar value. Counter-ions that a name gives are not always drawn. Like-named read-outs stand apart in the source and are kept apart here.

T1 sequence (Q9Y5N1 whole entry): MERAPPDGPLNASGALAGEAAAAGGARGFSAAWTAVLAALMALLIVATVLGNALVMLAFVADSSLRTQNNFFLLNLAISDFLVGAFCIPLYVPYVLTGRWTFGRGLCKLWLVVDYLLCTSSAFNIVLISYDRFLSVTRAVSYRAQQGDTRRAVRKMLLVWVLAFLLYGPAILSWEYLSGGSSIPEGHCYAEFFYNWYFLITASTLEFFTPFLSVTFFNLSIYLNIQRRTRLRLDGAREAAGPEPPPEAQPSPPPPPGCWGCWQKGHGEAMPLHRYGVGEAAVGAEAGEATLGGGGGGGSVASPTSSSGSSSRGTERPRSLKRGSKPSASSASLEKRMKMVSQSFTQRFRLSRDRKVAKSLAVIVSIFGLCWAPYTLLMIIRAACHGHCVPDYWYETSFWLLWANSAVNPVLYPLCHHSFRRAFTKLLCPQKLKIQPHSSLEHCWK
T2 sequence (P31645 whole entry): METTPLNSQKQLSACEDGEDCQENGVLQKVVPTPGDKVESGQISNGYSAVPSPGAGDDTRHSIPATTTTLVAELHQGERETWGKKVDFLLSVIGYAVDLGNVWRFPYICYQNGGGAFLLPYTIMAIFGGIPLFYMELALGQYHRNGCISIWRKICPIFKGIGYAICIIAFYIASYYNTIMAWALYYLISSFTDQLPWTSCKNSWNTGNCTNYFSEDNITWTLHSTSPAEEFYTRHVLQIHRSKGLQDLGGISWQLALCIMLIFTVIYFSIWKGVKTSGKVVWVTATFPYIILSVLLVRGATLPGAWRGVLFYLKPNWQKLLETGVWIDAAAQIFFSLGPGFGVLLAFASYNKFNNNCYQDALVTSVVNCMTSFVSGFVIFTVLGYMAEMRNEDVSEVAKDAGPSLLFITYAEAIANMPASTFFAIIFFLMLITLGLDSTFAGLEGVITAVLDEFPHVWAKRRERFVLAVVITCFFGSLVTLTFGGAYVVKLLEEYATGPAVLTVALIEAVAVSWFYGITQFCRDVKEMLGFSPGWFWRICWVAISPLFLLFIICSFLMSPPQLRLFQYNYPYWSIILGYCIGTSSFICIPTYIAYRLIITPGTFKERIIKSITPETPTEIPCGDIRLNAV
Sequence of Rat SERT (P31652 whole entry): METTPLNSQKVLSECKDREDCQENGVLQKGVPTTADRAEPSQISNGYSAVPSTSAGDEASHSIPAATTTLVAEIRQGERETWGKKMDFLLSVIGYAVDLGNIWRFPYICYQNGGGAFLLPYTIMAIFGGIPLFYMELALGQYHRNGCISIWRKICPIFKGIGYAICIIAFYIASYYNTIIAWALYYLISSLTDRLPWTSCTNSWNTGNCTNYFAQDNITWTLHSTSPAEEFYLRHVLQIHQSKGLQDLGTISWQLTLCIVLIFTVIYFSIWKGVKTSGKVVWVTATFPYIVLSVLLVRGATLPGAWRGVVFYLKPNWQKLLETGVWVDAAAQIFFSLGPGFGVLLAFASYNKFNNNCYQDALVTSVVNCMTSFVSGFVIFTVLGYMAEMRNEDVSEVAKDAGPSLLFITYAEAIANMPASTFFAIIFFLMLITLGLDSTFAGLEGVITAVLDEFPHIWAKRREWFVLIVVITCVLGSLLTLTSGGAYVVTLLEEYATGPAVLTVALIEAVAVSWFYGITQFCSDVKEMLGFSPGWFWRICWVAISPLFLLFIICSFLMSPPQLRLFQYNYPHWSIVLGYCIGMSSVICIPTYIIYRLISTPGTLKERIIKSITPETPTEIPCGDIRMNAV

In test [1], `CN1Cc2cc(OCCCN3CCCCC3)ncc2C(c2ccc(Cl)c(Cl)c2)C1` (single isomer, unassigned; enantiomer a) [Example 38, 4-(3,4-Dichloro-phenyl)-2-methyl-7-(3-piperidin-1-yl-propoxy)-1,2,3,4-tetrahydro-[2,6]-naphthyridine (enantiomer A)] had a pKi of 7.30. For the same compound, the affinity in test [2] (setting [4]) corresponds to a Ki of 56 nM.

Consider `Clc1ccc(C2CNCc3cc(OCCCN4CCCCC4)ncc32)cc1Cl` (single isomer, unassigned; enantiomer a) [Example 45, 4-(3,4-Dichloro-phenyl)-7-(3-piperidin-1-yl-propoxy)-1,2,3,4-tetrahydro-[2,6]-naphthyridine (enantiomer A)], for which the pKi in test [1] was 8.40; in test [2], 7.00.

`CN1Cc2cc(OCCCN3CCCCC3)ncc2C(c2ccc(Cl)c(Cl)c2)C1` (single isomer, unassigned; enantiomer b) [Example 39, 4-(3,4-Dichloro-phenyl)-2-methyl-7-(3-piperidin-1-yl-propoxy)-1,2,3,4-tetrahydro-[2,6]-naphthyridine (enantiomer B)] gave a pKi in test [1] of 7.38. Moreover, the Ki in test [2] (setting [4]) turned out to be 233 nM.

In the case of `Clc1ccc(C2CNCc3cc(OCCCN4CCCCC4)ncc32)cc1Cl` (single isomer, unassigned; enantiomer b) [Example 46, 4-(3,4-Dichloro-phenyl)-7-(3-piperidin-1-yl-propoxy)-1,2,3,4-tetrahydro-[2,6]-naphthyridine (enantiomer B)], the pKi in test [1] is 7.89; in test [3], 7.80. Besides, in test [2] (setting [4]), affinity was put at a Ki of 17 nM.

Take `CN1Cc2cc(OCCCN3CCCCC3)ncc2C(c2ccccc2)C1` (centres unmarked) [Example 3, 2-Methyl-4-phenyl-7-(3-piperidin-1-yl-propoxy)-1,2,3,4-tetrahydro-[2,6]-naphthyridine]: the pKi in test [1] is 8.30; in test [3], 5.94; in test [2] (setting [5]), 6.24.

For `COc1ccc(C2CN(C)Cc3cc(OCCCN4CCCCC4)ncc32)cc1` (centres unmarked) [Example 8, 4-(4-Methoxy-phenyl)-2-methyl-7-(3-piperidin-1-yl-propoxy)-1,2,3,4-tetrahydro-[2,6]-naphthyridine], the values for the pKi in test [1], in test [3] and in test [2] (setting [5]) were 7.92, 6.97 and 7.47, respectively.

In test [1], `COc1ccc(C2CNCc3cc(OCCC4CCCN4C)ncc32)cc1` (centres unmarked) [Example 9, 4-(4-Methoxy-phenyl)-7-[2-(1-methyl-pyrrolidin-2-yl)-ethoxy]-1,2,3,4-tetrahydro-[2,6]-naphthyridine] showed a pKi of 8.52. Further, the Ki in test [2] (setting [4]) stood at 43 nM.

With `COc1ccc(C2CN(C)Cc3cc(OCCC4CCCN4C)ncc32)cc1` (centres unmarked) [Example 10, 4-(4-Methoxy-phenyl)-2-methyl-7-[2-(1-methyl-pyrrolidin-2-yl)-ethoxy]-1,2,3,4-tetrahydro-[2,6]-naphthyridine], the values for the pKi in test [1] and in test [2] were 8.40 and 7.70, respectively.

Take `COc1ccc(C2CNCc3cc(OCCCN4CCOCC4)ncc32)cc1` (centres unmarked) [Example 11, 4-(4-Methoxy-phenyl)-7-(3-morpholin-4-yl-propoxy)-1,2,3,4-tetrahydro-[2,6]-naphthyridine]: the figures for the pKi in test [1], in test [3] and in test [2] (setting [5]) were 7.37, 6.72 and 7.28, respectively.

Regarding `COc1ccc(C2CN(C)Cc3cc(OCCCN4CCOCC4)ncc32)cc1` (centres unmarked) [Example 12, 4-(4-Methoxy-phenyl)-2-methyl-7-(3-morpholin-4-yl-propoxy)-1,2,3,4-tetrahydro-[2,6]-naphthyridine], the pKi in test [1] is 7.05; in test [3], 7.15; in test [2] (setting [5]), 7.54.

Take `COc1cccc(C2CN(C)Cc3cc(OCCCN4CCCCC4)ncc32)c1` (centres unmarked) [Example 14, 4-(3-Methoxy-phenyl)-2-methyl-7-(3-piperidin-1-yl-propoxy)-1,2,3,4-tetrahydro-[2,6]-naphthyridine]: the pKi in test [1] was 8.10; in test [3], 6.52; in test [2] (setting [5]) it was 7.23.

As to `COc1ccc(C2CNCc3cc(OCCCN4CCC(F)(F)CC4)ncc32)cc1` (centres unmarked) [Example 19, 7-[3-(4,4-Difluoro-piperidin-1-yl)-propoxy]-4-(4-methoxy-phenyl)-1,2,3,4-tetrahydro-[2,6]-naphthyridine], the pKi is 6.68 in test [1], 7.29 in test [3] and 7.25 in test [2].

Take `CCN(CC)CCCOc1cc2c(cn1)C(c1ccc(OC)cc1)CNC2` (centres unmarked) [Example 20, Diethyl-{3-[8-(4-methoxy-phenyl)-5,6,7,8-tetrahydro-[2,6]naphthyridin-3-yloxy]-propyl}-amine]: the pKi is 7.64 in test [1], 6.65 in test [3] and 6.89 in test [2] (setting [5]).

In test [2], `COc1ccc(C2CNCc3cc(OC4CCN(Cc5ccccc5)CC4)ncc32)cc1` (centres unmarked) [Example 22, 7-(1-Benzyl-piperidin-4-yloxy)-4-(4-methoxy-phenyl)-1,2,3,4-tetrahydro-[2,6]-naphthyridine] showed a pKi of 7.06.

Turning to `Clc1ccc(C2CNCc3cc(OCCCN4CCOCC4)ncc32)cc1Cl` (centres unmarked) [Example 26, 4-(3,4-Dichloro-phenyl)-7-(3-morpholin-4-yl-propoxy)-1,2,3,4-tetrahydro-[2,6]-naphthyridine], the pKi in test [1] is 7.36; in test [3], 6.21. In test [2] (setting [4]), this compound came in with a Ki of 64 nM.

As for `CN1Cc2cc(OCCCN3CCCCC3)ncc2C(c2cccc(Cl)c2)C1` (centres unmarked) [Example 27, 4-(3-Chloro-phenyl)-2-methyl-7-(3-piperidin-1-yl-propoxy)-1,2,3,4-tetrahydro-[2,6]-naphthyridine], the figures for the pKi in test [1], in test [3] and in test [2] (setting [5]) were 8.15, 6.08 and 6.84, respectively.

`COc1ccc(C2CN(C)Cc3cc(OCCCN4CCC(F)(F)CC4)ncc32)cc1` (centres unmarked) [Example 28, 7-[3-(4,4-Difluoro-piperidin-1-yl)-propoxy]-4-(4-methoxy-phenyl)-2-methyl-1,2,3,4-tetrahydro-[2,6]naphthyridine] gave a pKi in test [1] of 6.58. In test [2] (setting [4]), this compound came in with a Ki of 129 nM.

On to `CCN(CC)CCCOc1cc2c(cn1)C(c1ccc(OC)cc1)CN(C)C2` (centres unmarked) [Example 29, Diethyl-{3-[8-(4-methoxy-phenyl)-6-methyl-5,6,7,8-tetrahydro-[2,6]naphthyridin-3-yloxy]-propyl}-amine], for which the pKi is 7.89 in test [1], 7.18 in test [3] and 7.72 in test [2] (setting [5]).

As to `CCN(CC)CCCOc1cc2c(cn1)C(c1ccc(Cl)c(Cl)c1)CN(C)C2` (centres unmarked) [Example 30, {3-[8-(3,4-Dichloro-phenyl)-6-methyl-5,6,7,8-tetrahydro-[2,6]naphthyridin-3-yloxy]-propyl}-diethyl-amine], the pKi in test [1] was 7.80; in test [3] it was 7.52; in test [2] (setting [5]) it was 7.48.

With `CN1Cc2cc(OCCCN3CCCCC3)ncc2C(c2ccc(F)c(Cl)c2)C1` (centres unmarked) [Example 35, 4-(3-Chloro-4-fluoro-phenyl)-2-methyl-7-(3-piperidin-1-yl-propoxy)-1,2,3,4-tetrahydro-[2,6]naphthyridine], the pKi in test [1] was 8.15; in test [3] it was 6.83; in test [2], 7.59.

Regarding `CN1Cc2cc(OCCCN3CCCCC3)ncc2C(c2ccc(Cl)cc2)C1` (centres unmarked) [Example 36, 4-(4-Chloro-phenyl)-2-methyl-7-(3-piperidin-1-yl-propoxy)-1,2,3,4-tetrahydro-[2,6]naphthyridine], the values for the pKi in test [1], in test [3] and in test [2] (setting [5]) were 7.82, 6.97 and 7.66, respectively.

Turning to `COc1ccc(C2CN(C)Cc3cc(OCC4CCN(C(C)C)CC4)ncc32)cc1` (centres unmarked) [Example 40, 7-(1-Isopropyl-piperidin-4-ylmethoxy)-4-(4-methoxy-phenyl)-2-methyl-1,2,3,4-tetrahydro-[2,6]-naphthyridine], the pKi was 7.89 in test [1], 7.21 in test [3] and 7.35 in test [2] (setting [5]).

In the case of `CC(C)N1CCC(COc2cc3c(cn2)C(c2ccc(Cl)c(Cl)c2)CN(C)C3)CC1` (centres unmarked) [Example 41, 4-(3,4-Dichloro-phenyl)-7-(1-isopropyl-piperidin-4-ylmethoxy)-2-methyl-1,2,3,4-tetrahydro-[2,6]naphthyridine], the results for the pKi in test [1], in test [3] and in test [2] (setting [5]) were 7.89, 7.51 and 7.64, respectively.

Turning to `COc1ccc(C2CNCc3cc(OC4CCNCC4)ncc32)cc1` (centres unmarked) [Example 42, 4-(4-Methoxy-phenyl)-7-(piperidin-4-yloxy)-1,2,3,4-tetrahydro-[2,6]naphthyridine], the pKi in test [2] was 6.97.

Regarding `COc1ccc(C2CN(C)Cc3cc(OC4CCN(C)CC4)ncc32)cc1` (centres unmarked) [Example 43, 4-(4-Methoxy-phenyl)-2-methyl-7-(1-methyl-piperidin-4-yloxy)-1,2,3,4-tetrahydro-[2,6]naphthyridine], the results for the pKi in test [1], in test [3] and in test [2] were 6.10, 5.99 and 6.86, respectively.

With `FC(F)(F)Oc1ccc(C2CNCc3cc(OCCCN4CCCCC4)ncc32)cc1` (centres unmarked) [Example 44, 7-(3-Piperidin-1-yl-propoxy)-4-(4-trifluoromethoxy-phenyl)-1,2,3,4-tetrahydro-[2,6]naphthyridine], the pKi in test [1] was 7.74; in test [3], 7.15; in test [2] it was 7.13.

On to `COc1ccc(C2CN(C)Cc3cc(C#CCCN4CCCCC4)cnc32)cc1` (centres unmarked) [Example 48, 8-(4-Methoxy-phenyl)-6-methyl-3-(4-piperidin-1-yl-but-1-ynyl)-5,6,7,8-tetrahydro-[1,6]naphthyridine trifluoroacetic acid salt], for which the results for the pKi in test [1], in test [3] and in test [2] were 7.35, 5.70 and 6.00, respectively.
